Test results as given in article PMC2867246 (Biochemistry, 2010).

Columns and labels:
Swiss Webster mice = conditions: mouse, in vivo
CaV2.2 = conditions: cited from earlier work
[1] = tested on: N-type calcium channels (CaV2.2); type: cell-based; conditions: pH 7.4

Substance: ω-conotoxin GVIA
- behavior after injection (Swiss Webster mice): shaking syndrome
- behavior at higher concentrations (Swiss Webster mice): passive behavior with a backwards leg-extension
- duration of shaking behavior (Swiss Webster mice): lasted for more than a day
- affinity for CaV2.2, in words (CaV2.2): high affinity
- percentage block of N-current [1]: 98.5 ± 1.0 percentage
